Results on one molecule are retold here after US9121007B2, “Treatment of bone-related cancers using placental stem cells” (ANTHROGENESIS CORPORATIN, priority 2010, dated 2015).

This experiment relates to osteoclast precursors. Put plainly: Osteoclastogenesis from osteoclast precursors with lenalidomide. The format is cell-based. On the procedure: FIG. 15. Therefore, there is a possible synergistic or additive anti-osteoclastogenic effect of PDACs and lenalidomide at concentration of between about 0.1 μM to 1 μM.

Turning to `Nc1cccc2c1CN(C1CCC(=O)NC1=O)C2=O` (centres unmarked) [lenalidomide, 3-(4-amino-1-oxo 1,3-dihydro-2H-isoindol-2-yl) piperidine-2,6-dione], the “number of osteoclasts that differentiated from the osteoclast precursors” value (0.1 μM or 1 μM lenalidomide with placental stem cells, vs placental stem cells or BM-MSC) was “further decrease the number of osteoclasts”. Besides, the “number of osteoclasts formed” value (lenalidomide alone at concentrations around 1 μM) was “steep decline in the number of osteoclasts formed”.
